Laboratory results: ChEMBL document CHEMBL1201862, “PubChem BioAssay data set” (2004)
Calls of active or inactive are those of the source.

Assays:
[1] = test system: Staphylococcus aureus; experiment: Inhibitors of Bacterial Quorum Sensing Structure Activity Relationship (SAR) Analysis: Dose Response Assay. [Related pubchem assays: 700, 527 ]; format: functional, organism-based
[2] = biological target: Acyl-homoserine lactone acylase PvdQ (Pseudomonas aeruginosa (strain LESB58), UniProt Q9I194); experiment: P. aeruginosa PvdQ acylase inhibitors, dose response, biochemical, fluorescence, plate reader and imaging, cherry-picks (AID 493231)
[3] = biological target: Transitional endoplasmic reticulum ATPase (Homo sapiens, UniProt P55072, C522A); experiment: C522A mutant p97 ATPase inhibitors, dose response, counter-screen for p97 inhibitor project, biochemical, luminescence (AID 1544)
[4] = biological target: Transitional endoplasmic reticulum ATPase (Homo sapiens, UniProt P55072); experiment: p97 ATPase inhibitors, dose response, biochemical (AID 1534)
[5] = biological target: Peroxisome proliferator-activated receptor gamma/Nuclear receptor corepressor 2 (Homo sapiens, UniProt P37231+Q9Y618); format: functional
[6] = biological target: Photoreceptor-specific nuclear receptor (Homo sapiens, UniProt Q9Y5X4); format: functional;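 also: potency for compounds that break the NR2E3 corepressor complex and count as activators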
[7] = cells; format: functional, cell-based
[8] = cells; format: functional, cell-based; remark: listed apart in the source
[9] = biological target: Lysosomal acid glucosylceramidase (Homo sapiens, UniProt P04062); experiment: Dose response cell-based high throughput screening assay to identify enhancers of beta-glucosidase activity. [Related pubchem assays: 784 ]; format: functional
Chain of Lysosomal acid glucosylceramidase (P04062 whole entry): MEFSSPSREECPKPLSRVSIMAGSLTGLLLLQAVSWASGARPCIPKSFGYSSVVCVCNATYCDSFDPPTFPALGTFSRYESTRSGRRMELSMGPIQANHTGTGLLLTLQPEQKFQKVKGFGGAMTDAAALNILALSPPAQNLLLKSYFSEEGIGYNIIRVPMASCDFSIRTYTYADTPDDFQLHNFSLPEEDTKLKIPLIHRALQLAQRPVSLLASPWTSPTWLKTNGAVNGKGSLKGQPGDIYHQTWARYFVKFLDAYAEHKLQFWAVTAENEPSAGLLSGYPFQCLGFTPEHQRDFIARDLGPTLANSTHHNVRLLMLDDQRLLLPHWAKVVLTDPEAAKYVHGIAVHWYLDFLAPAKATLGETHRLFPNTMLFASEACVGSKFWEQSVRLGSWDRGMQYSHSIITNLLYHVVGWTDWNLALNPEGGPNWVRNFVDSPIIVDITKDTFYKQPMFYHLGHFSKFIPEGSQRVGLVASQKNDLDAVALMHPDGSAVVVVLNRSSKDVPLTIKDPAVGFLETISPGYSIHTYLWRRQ

Chain of Transitional endoplasmic reticulum ATPase (Homo sapiens, UniProt P55072, C522A) (P55072 2-806 C522A limits assumed): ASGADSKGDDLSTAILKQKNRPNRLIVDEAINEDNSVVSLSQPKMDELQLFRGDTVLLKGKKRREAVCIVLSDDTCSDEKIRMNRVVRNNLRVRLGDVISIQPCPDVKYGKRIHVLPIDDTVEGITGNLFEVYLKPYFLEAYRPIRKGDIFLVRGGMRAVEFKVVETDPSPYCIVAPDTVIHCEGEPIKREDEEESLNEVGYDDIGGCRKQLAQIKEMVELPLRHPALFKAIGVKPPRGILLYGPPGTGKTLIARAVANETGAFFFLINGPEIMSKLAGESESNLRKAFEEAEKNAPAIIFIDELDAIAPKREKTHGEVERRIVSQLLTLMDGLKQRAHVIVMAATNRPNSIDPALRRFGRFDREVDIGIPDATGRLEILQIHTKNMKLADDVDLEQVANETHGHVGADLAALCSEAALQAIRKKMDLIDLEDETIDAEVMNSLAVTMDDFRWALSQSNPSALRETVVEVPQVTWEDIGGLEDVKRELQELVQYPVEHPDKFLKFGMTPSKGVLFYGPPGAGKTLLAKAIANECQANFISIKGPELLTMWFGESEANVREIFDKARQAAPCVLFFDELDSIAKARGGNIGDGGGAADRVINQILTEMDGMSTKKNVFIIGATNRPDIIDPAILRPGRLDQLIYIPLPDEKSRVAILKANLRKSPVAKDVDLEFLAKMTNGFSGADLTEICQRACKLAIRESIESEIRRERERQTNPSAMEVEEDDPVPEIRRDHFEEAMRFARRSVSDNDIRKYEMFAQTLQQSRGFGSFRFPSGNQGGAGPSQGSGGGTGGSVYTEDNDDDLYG
Chain of Photoreceptor-specific nuclear receptor (Q9Y5X4 whole entry): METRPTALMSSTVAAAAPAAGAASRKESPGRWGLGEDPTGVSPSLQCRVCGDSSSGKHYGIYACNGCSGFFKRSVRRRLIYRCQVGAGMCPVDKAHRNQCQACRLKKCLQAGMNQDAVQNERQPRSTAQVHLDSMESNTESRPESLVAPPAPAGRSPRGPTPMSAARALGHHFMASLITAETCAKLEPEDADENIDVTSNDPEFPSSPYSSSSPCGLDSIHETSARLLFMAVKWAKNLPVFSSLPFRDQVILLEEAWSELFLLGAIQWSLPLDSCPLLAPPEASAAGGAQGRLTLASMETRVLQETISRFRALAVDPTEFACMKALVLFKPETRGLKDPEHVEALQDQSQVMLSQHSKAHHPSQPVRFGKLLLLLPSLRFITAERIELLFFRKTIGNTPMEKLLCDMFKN
Chain of Acyl-homoserine lactone acylase PvdQ (Q9I194 24-193 limits assumed): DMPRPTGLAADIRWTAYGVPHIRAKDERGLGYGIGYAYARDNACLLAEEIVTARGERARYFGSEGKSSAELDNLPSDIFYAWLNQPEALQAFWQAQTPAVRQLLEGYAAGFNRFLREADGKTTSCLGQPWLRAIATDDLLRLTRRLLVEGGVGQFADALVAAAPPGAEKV
Chain of Acyl-homoserine lactone acylase PvdQ (Q9I194 217-762 limits assumed): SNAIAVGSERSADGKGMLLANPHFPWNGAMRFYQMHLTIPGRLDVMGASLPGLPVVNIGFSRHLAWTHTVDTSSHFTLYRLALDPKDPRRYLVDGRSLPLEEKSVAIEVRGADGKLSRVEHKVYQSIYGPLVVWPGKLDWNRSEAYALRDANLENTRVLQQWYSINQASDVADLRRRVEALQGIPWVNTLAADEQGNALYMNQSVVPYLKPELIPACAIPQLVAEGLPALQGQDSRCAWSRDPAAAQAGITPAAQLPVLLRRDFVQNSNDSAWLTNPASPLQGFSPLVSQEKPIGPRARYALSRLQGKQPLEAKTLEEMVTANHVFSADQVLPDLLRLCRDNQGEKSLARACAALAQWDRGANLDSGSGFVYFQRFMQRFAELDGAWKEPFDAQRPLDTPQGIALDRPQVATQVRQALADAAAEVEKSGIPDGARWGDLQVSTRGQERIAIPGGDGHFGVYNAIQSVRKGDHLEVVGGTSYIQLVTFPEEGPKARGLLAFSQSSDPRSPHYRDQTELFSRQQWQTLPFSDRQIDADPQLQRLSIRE
Chain of Transitional endoplasmic reticulum ATPase (Homo sapiens, UniProt P55072) (P55072 whole entry): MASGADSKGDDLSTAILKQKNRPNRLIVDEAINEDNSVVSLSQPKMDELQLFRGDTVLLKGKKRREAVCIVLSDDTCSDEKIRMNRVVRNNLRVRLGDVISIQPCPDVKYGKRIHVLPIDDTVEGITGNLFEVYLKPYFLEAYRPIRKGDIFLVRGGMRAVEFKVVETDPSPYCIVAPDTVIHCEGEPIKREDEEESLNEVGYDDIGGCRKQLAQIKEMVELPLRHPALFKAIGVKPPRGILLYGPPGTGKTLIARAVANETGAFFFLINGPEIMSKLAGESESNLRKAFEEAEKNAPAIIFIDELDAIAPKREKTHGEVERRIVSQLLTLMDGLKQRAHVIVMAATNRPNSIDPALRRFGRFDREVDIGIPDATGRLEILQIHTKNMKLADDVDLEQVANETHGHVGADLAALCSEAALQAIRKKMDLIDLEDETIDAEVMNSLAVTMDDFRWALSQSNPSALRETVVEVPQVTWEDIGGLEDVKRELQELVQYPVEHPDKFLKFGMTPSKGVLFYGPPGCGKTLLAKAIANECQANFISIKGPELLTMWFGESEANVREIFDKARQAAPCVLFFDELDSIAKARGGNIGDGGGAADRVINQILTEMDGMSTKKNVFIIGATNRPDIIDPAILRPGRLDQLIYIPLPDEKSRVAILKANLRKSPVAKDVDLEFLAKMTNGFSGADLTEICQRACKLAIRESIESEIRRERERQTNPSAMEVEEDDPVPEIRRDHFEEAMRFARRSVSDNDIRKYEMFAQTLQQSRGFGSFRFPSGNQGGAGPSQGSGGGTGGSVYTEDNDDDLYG

Structure (SMILES): CCc1ccc(S(=O)(=O)c2nnn3c2nc(O)c2ccccc23)cc1
- IC50 [1]: 244 nM (active)

Structure (SMILES): Cc1ccc([S+]([O-])c2ccc(C)cc2)cc1
- AC50 [2]: 2.65 µM (active)

Structure (SMILES): Cc1ccc2[nH]cc(C(=O)CCl)c2c1
- IC50 [3]: > 50 µM (not active)
- IC50 [4]: > 50 µM (not active)

Structure (SMILES): CC(C)Cc1c2c([nH]c(=S)c1C#N)CCCC2
- IC50 [5]: 6.27 µM (active)
- IC50 [6]: > 39.8 µM (not active)

Structure (SMILES): COc1ccc(CNC(=O)CN(CC2CCCO2)C(=O)CNS(=O)(=O)c2ccc(C)cc2)cc1 (centres undefined)
- EC50 [7]: > 350 µM (not active)
- EC50 [8]: > 350 µM (not active)
- EC50 [9]: > 50 µM (not active)
